{"source": "patent US20230180804A1", "about": "“FLAVOR COMPOSITION, AND FOOD AND BEVERAGE” (TAKASAGO INTERNATIONAL CORPORATION, priority 2020, published 2023)", "test": "Sensory evaluation of p-cresol odor masking in p-cresol-containing grated raw ginger", "conditions": "for p-Cresol Odor Intensity: grated ginger with 600 ppb p-cresol, average score of 9 panelists, scale 0-4", "description": "To commercially available grated raw ginger, p-cresol adjusted to a concentration of 0.1% with 95% ethanol was added to a concentration of 600 ppb in the ginger. To this p-cresol-containing ginger, 1-oxacycloheptadecan-8-en-2-one was added at the concentrations presented in Table 16 to confirm the p-cresol odor intensity (masking effect) and the influence on the ginger flavor of each sample.\nNine skilled panelists were selected to perform the same sensory evaluation as in Example 1. The results are as in Table 16, presenting the average score of the evaluation results for each panelist.", "key": {"[1]": {"conditions": "grated raw ginger with 600 ppb p-cresol"}}}
{"smiles": "O=C1CCCCCCCCCCCCCCO1", "note": "[Pentalide, pentalide]", "values": [{"measurement": "p-Cresol Odor Intensity", "setting": "1 ppb added", "result": 1.3, "unit": "points"}, {"measurement": "p-Cresol Odor Intensity", "setting": "1 ppt added", "result": 3.3, "unit": "points"}, {"measurement": "p-Cresol Odor Intensity", "setting": "10 ppb added", "result": 1.1, "unit": "points"}, {"measurement": "p-Cresol Odor Intensity", "setting": "10 ppt added", "result": 2.7, "unit": "points"}, {"measurement": "p-Cresol Odor Intensity", "setting": "100 ppt added", "result": 1.6, "unit": "points"}, {"measurement": "concentration at which the compound masks the p-cresol odor and does not affect the ginger flavor, lower limit", "setting": "[1]", "result": "≥ 10", "unit": "ppt"}, {"measurement": "concentration at which the compound masks the p-cresol odor and does not affect the ginger flavor, upper limit", "setting": "[1]", "result": "≤ 1", "unit": "ppb"}]}
